In patent publication US11505543B2, “4-oxo-3,4-dihydroquinazoline compounds as inhibitors of human immunodeficiency virus replication” (VIIV HEALTHCARE UK (NO.5) LIMITED, priority 2018, dated 2022):

Legend:
[1] = Compound cytotoxicity, XTT-based colorimetric assay; type: cell-based; details: human, uninfected MT2 cells, day 4, XTT
Outline: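 Run under the antiviral-assay protocol but without virus. Viability was read on day 4 and CC50 values were derived from the readout.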

[2] = system: recombinant NL4-3 virus (nef section replaced with Renilla luciferase gene) in MT-2 cells; test: HIV cell culture assay (antiviral activity, luciferase readout); type: cell-based; details: Renilla, NL43, MT-2 cells infected for 4-5 days with recombinant NL4-3 Renilla luciferase virus, serial dilutions of compound
Outline: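 Test compound in serial dilution was present while MT-2 cells were infected for 4–5 days with recombinant NL4-3 virus made in 293T cells. Antiviral activity was quantified as Renilla luciferase activity, read with a live-cell substrate. EC50 came from the median-effect equation.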

Row | SMILES | CC50 at 4 day [1] | EC50 [2]
1 | Cn1nc(NS(C)(=O)=O)c2c(Cl)ccc(-n3c([C@H](Cc4cc(F)cc(F)c4)NC(=O)Cn4nc(C(F)F)c5c4C(F)(F)[C@@H]4C[C@H]54)nc4cc(-c5ccccc5CO)ccc4c3=O)c21 (atropisomer, axis not shown; (aR)) [Example 116, N-((S)-1-(3-(4-chloro-1-methyl-3-(methylsulfonamido)-1H-indazol-7-yl)-7-(2-(hydroxymethyl)phenyl)-4-oxo-3,4-dihydroquinazolin-2-yl)-2-(3,5-difluorophenyl)ethyl)-2-((3bS,4aR)-3-(difluoromethyl)-5,5-difluoro-3b,4,4a,5-tetrahydro-1H-cyclopropa[3,4]cyclopenta[1,2-c]pyrazol-1-yl)acetamide] | > 500 nM | 0.14 nM
2 | COc1ccnc(-c2ccc3c(=O)n(-c4ccc(Cl)c5c(NS(C)(=O)=O)nn(C)c45)c([C@H](Cc4cc(F)cc(F)c4)NC(=O)Cn4nc(C(F)F)c5c4C(F)(F)[C@@H]4C[C@H]54)nc3c2)n1 (atropisomer, axis not shown; (aR)) [Example 117, N-((S)-1-(3-(4-chloro-1-methyl-3-(methylsulfonamido)-1H-indazol-7-yl)-7-(4-methoxypyrimidin-2-yl)-4-oxo-3,4-dihydroquinazolin-2-yl)-2-(3,5-difluorophenyl)ethyl)-2-((3bS,4aR)-3-(difluoromethyl)-5,5-difluoro-3b,4,4a,5-tetrahydro-1H-cyclopropa[3,4]cyclopenta[1,2-c]pyrazol-1-yl)acetamide] | > 500 nM | 0.058 nM
3 | Cn1nc(NS(C)(=O)=O)c2c(Cl)ccc(-n3c([C@H](Cc4cc(F)cc(F)c4)NC(=O)Cn4nc(C(F)F)c5c4C(F)(F)[C@@H]4C[C@H]54)nc4cc(-c5ccncc5)ccc4c3=O)c21 (atropisomer, axis not shown; (aR)) [Example 118, N-((S)-1-(3-(4-chloro-1-methyl-3-(methylsulfonamido)-1H-indazol-7-yl)-4-oxo-7-(pyridin-4-yl)-3,4-dihydroquinazolin-2-yl)-2-(3,5-difluorophenyl)ethyl)-2-((3bS,4aR)-3-(difluoromethyl)-5,5-difluoro-3b,4,4a,5-tetrahydro-1H-cyclopropa[3,4]cyclopenta[1,2-c]pyrazol-1-yl)acetamide] | > 500 nM | 0.16 nM
4 | CCS(=O)(=O)c1ccccc1-c1ccc2c(=O)n(-c3ccc(Cl)c4c(NS(C)(=O)=O)nn(C)c34)c([C@H](Cc3cc(F)cc(F)c3)NC(=O)Cn3nc(C(F)F)c4c3C(F)(F)[C@@H]3C[C@H]43)nc2c1 (atropisomer, axis not shown; (aR)) [Example 119, N-((S)-1-(3-(4-chloro-1-methyl-3-(methylsulfonamido)-1H-indazol-7-yl)-7-(2-(ethylsulfonyl)phenyl)-4-oxo-3,4-dihydroquinazolin-2-yl)-2-(3,5-difluorophenyl)ethyl)-2-((3bS,4aR)-3-(difluoromethyl)-5,5-difluoro-3b,4,4a,5-tetrahydro-1H-cyclopropa[3,4]cyclopenta[1,2-c]pyrazol-1-yl)acetamide] | > 500 nM | 0.1 nM
5 | CC(C)S(=O)(=O)c1ccccc1-c1ccc2c(=O)n(-c3ccc(Cl)c4c(NS(C)(=O)=O)nn(C)c34)c([C@H](Cc3cc(F)cc(F)c3)NC(=O)Cn3nc(C(F)F)c4c3C(F)(F)[C@@H]3C[C@H]43)nc2c1 (atropisomer, axis not shown; (aR)) [Example 120, N-((S)-1-(3-(4-chloro-1-methyl-3-(methylsulfonamido)-1H-indazol-7-yl)-7-(2-(isopropylsulfonyl)phenyl)-4-oxo-3,4-dihydroquinazolin-2-yl)-2-(3,5-difluorophenyl)ethyl)-2-((3bS,4aR)-3-(difluoromethyl)-5,5-difluoro-3b,4,4a,5-tetrahydro-1H-cyclopropa[3,4]cyclopenta[1,2-c]pyrazol-1-yl)acetamide] | > 500 nM | 0.13 nM
6 | CCS(=O)(=O)c1cccc(-c2ccc3c(=O)n(-c4ccc(Cl)c5c(NS(C)(=O)=O)nn(C)c45)c([C@H](Cc4cc(F)cc(F)c4)NC(=O)Cn4nc(C(F)F)c5c4C(F)(F)[C@@H]4C[C@H]54)nc3c2)c1 (atropisomer, axis not shown; (aR)) [Example 121, N-((S)-1-(3-(4-chloro-1-methyl-3-(methylsulfonamido)-1H-indazol-7-yl)-7-(3-(ethylsulfonyl)phenyl)-4-oxo-3,4-dihydroquinazolin-2-yl)-2-(3,5-difluorophenyl)ethyl)-2-((3bS,4aR)-3-(difluoromethyl)-5,5-difluoro-3b,4,4a,5-tetrahydro-1H-cyclopropa[3,4]cyclopenta[1,2-c]pyrazol-1-yl)acetamide] | > 500 nM | 0.11 nM
7 | CCCS(=O)(=O)c1cccc(-c2ccc3c(=O)n(-c4ccc(Cl)c5c(NS(C)(=O)=O)nn(C)c45)c([C@H](Cc4cc(F)cc(F)c4)NC(=O)Cn4nc(C(F)F)c5c4C(F)(F)[C@@H]4C[C@H]54)nc3c2)c1 (atropisomer, axis not shown; (aR)) [Example 122, N-((S)-1-(3-(4-chloro-1-methyl-3-(methylsulfonamido)-1H-indazol-7-yl)-4-oxo-7-(3-(propylsulfonyl)phenyl)-3,4-dihydroquinazolin-2-yl)-2-(3,5-difluorophenyl)ethyl)-2-((3bS,4aR)-3-(difluoromethyl)-5,5-difluoro-3b,4,4a,5-tetrahydro-1H-cyclopropa[3,4]cyclopenta[1,2-c]pyrazol-1-yl)acetamide] | > 500 nM | 0.17 nM
8 | CC(C)S(=O)(=O)c1cccc(-c2ccc3c(=O)n(-c4ccc(Cl)c5c(NS(C)(=O)=O)nn(C)c45)c([C@H](Cc4cc(F)cc(F)c4)NC(=O)Cn4nc(C(F)F)c5c4C(F)(F)[C@@H]4C[C@H]54)nc3c2)c1 (atropisomer, axis not shown; (aR)) [Example 123, N-((S)-1-(3-(4-chloro-1-methyl-3-(methylsulfonamido)-1H-indazol-7-yl)-7-(3-(isopropylsulfonyl)phenyl)-4-oxo-3,4-dihydroquinazolin-2-yl)-2-(3,5-difluorophenyl)ethyl)-2-((3bS,4aR)-3-(difluoromethyl)-5,5-difluoro-3b,4,4a,5-tetrahydro-1H-cyclopropa[3,4]cyclopenta[1,2-c]pyrazol-1-yl)acetamide] | > 500 nM | 0.15 nM
9 | CS(=O)(=O)Nc1nn(CC(F)F)c2c(-n3c([C@H](Cc4cc(F)cc(F)c4)NC(=O)Cn4nc(C(F)F)c5c4C(F)(F)[C@@H]4C[C@H]54)nc4cc(-c5ncccn5)ccc4c3=O)ccc(Cl)c12 (atropisomer, axis not shown; (aR)) [Example 124, N-((S)-1-(3-(4-chloro-1-(2,2-difluoroethyl)-3-(methylsulfonamido)-1H-indazol-7-yl)-4-oxo-7-(pyrimidin-2-yl)-3,4-dihydroquinazolin-2-yl)-2-(3,5-difluorophenyl)ethyl)-2-((3bS,4aR)-3-(difluoromethyl)-5,5-difluoro-3b,4,4a,5-tetrahydro-1H-cyclopropa[3,4]cyclopenta[1,2-c]pyrazol-1-yl)acetamide] | > 500 nM | 0.058 nM
10 | Cc1nccnc1-c1ccc2c(=O)n(-c3ccc(Cl)c4c(NS(C)(=O)=O)nn(CC(F)F)c34)c([C@H](Cc3cc(F)cc(F)c3)NC(=O)Cn3nc(C(F)F)c4c3C(F)(F)[C@@H]3C[C@H]43)nc2c1 (atropisomer, axis not shown; (aR)) [Example 125, N-((S)-1-(3-(4-chloro-1-(2,2-difluoroethyl)-3-(methylsulfonamido)-1H-indazol-7-yl)-7-(3-methylpyrazin-2-yl)-4-oxo-3,4-dihydroquinazolin-2-yl)-2-(3,5-difluorophenyl)ethyl)-2-((3bS,4aR)-3-(difluoromethyl)-5,5-difluoro-3b,4,4a,5-tetrahydro-1H-cyclopropa[3,4]cyclopenta[1,2-c]pyrazol-1-yl)acetamide] | > 500 nM | 0.054 nM
11 | Cc1nccnc1-c1ccc2c(=O)n(-c3ccc(Cl)c4c(NS(=O)(=O)C5CC5)nn(CC(F)F)c34)c([C@H](Cc3cc(F)cc(F)c3)NC(=O)Cn3nc(C(F)F)c4c3C(F)(F)[C@@H]3C[C@H]43)nc2c1 (atropisomer, axis not shown; (aR)) [Example 126, N-((S)-1-(3-(4-chloro-3-(cyclopropanesulfonamido)-1-(2,2-difluoroethyl)-1H-indazol-7-yl)-7-(3-methylpyrazin-2-yl)-4-oxo-3,4-dihydroquinazolin-2-yl)-2-(3,5-difluorophenyl)ethyl)-2-((3bS,4aR)-3-(difluoromethyl)-5,5-difluoro-3b,4,4a,5-tetrahydro-1H-cyclopropa[3,4]cyclopenta[1,2-c]pyrazol-1-yl)acetamide] | > 500 nM | 0.052 nM
12 | O=C(Cn1nc(C(F)F)c2c1C(F)(F)[C@@H]1C[C@H]21)N[C@@H](Cc1cc(F)cc(F)c1)c1nc2cc(-c3ncccn3)ccc2c(=O)n1-c1ccc(Cl)c2c(NS(=O)(=O)C3CC3)nn(CC(F)F)c12 (atropisomer, axis not shown; (aR)) [Example 127, N-((S)-1-(3-(4-chloro-3-(cyclopropanesulfonamido)-1-(2,2-difluoroethyl)-1H-indazol-7-yl)-4-oxo-7-(pyrimidin-2-yl)-3,4-dihydroquinazolin-2-yl)-2-(3,5-difluorophenyl)ethyl)-2-((3bS,4aR)-3-(difluoromethyl)-5,5-difluoro-3b,4,4a,5-tetrahydro-1H-cyclopropa[3,4]cyclopenta[1,2-c]pyrazol-1-yl)acetamide] | > 500 nM | 0.059 nM
